Results on nine compounds are retold here after ChEMBL document CHEMBL1151873, “Protein tyrosine phosphatase 1B inhibitory effects of depsidone and pseudodepsidone metabolites from the Antarctic lichen Stereocaulon alpinum” (Bioorg Med Chem Lett, 2009).

Assay [1] deals with T1, Tyrosine-protein phosphatase non-receptor type 1 (Homo sapiens, UniProt P18031).
T1 sequence (P18031 whole entry): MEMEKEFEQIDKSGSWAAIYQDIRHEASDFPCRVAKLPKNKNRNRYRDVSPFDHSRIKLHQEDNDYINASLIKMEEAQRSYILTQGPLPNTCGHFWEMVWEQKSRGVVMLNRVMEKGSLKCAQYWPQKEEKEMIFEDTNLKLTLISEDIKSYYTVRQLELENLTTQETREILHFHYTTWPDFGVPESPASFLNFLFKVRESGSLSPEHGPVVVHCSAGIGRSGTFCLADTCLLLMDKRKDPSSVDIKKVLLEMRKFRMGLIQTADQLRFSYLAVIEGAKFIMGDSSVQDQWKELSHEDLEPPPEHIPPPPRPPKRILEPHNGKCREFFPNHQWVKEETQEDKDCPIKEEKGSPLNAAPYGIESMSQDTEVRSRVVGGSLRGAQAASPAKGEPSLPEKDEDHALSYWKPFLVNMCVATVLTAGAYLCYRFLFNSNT
The assay is described as follows: (§1) Inhibition of PTP1B.

The target in assay [2] is T2, Tyrosine-protein phosphatase non-receptor type 1 (Homo sapiens) (UniProt P18031).
T2 sequence (whole entry): T1 sequence (P18031 whole entry)
The description is as §1.

For assay [3], the target named is T2, Tyrosine-protein phosphatase non-receptor type 1 (Homo sapiens). The assay is described as follows: Non competitive inhibition of PTP1B assessed as inhibition of substrate catalysis by Lineweaver-Burke plot.

Structures are written as SMILES. pIC50: −log10 of the molar value. The source made the active and inactive calls. No cut-off for these calls is given here. Where only a bound is given, the exact number is not on record here.

Usually pIC50 stands for the negative decadic logarithm of the IC50, by convention in mol/L. A high value points to a low IC50.

Regarding `COC(=O)c1c(C)cc(O)c(C=O)c1O` [METHYL HAEMATOMMATE], the pIC50 in assay [1] is less than 3.70.

`CCCCCc1c2c(cc(O)c1C(=O)OC)OC(=O)c1c(cc(OC)cc1C(=O)CCCC)O2`: the pIC50 in assay [1] was 5.52.

Take `CCCCCc1cc(O)cc(O)c1Oc1cc(OC)cc2c1C(=O)OC2(CCCC)OC` (stereo not drawn): the Activity result in assay [2] is “Dose-dependent effect”. The compound further gave a pIC50 in assay [1] of 5.16. Moreover, the result in assay [3] was Active.

`CCCCCc1c2c(cc(OC)c1C(=O)OC)OC(=O)c1c(cc(OC)cc1C(=O)CCCC)O2` gave a pIC50 in assay [1] of 5.13.

The compound `COC(=O)c1c(C)cc(O)cc1O` [METHYL ORSELLINATE] had a pIC50 in assay [1] of less than 3.70.

Regarding `CCCCCc1c(Oc2cc(OC)cc3c2C(=O)OC3(CCCC)OC)c(O)cc(O)c1C(=O)O` (stereo not drawn), in assay [2], the Activity result was “Dose-dependent effect”. Besides, the pIC50 in assay [1] is 5.61.

For the compound `COC(=O)c1c(C)cc(OC(=O)c2c(C)cc(O)c(C=O)c2O)c(C)c1O` [ATRANORIN], the pIC50 in assay [1] was 4.20.

With `COc1cc(O)c(C(C)=O)c(O)c1C`, the pIC50 in assay [1] was less than 3.70.

In the case of `CCCCCc1c2c(cc(O)c1C(=O)O)OC(=O)c1c(cc(OC)cc1C(=O)CCCC)O2`, the Activity entry in assay [2] is “Dose-dependent effect”. The result in assay [3] was Active.
